The text below walks through data of publication PMC10527105, “Chirality Matters: Fine-Tuning of Novel Monoamine Reuptake Inhibitors Selectivity through Manipulation of Stereochemistry” (Biomolecules, 2023).

The subject of series [1] is extracellular DA levels in the hippocampus. The series is described as follows: In vivo micro-dialysis in freely moving mice. Set-up: species or system C57BL76J mice. The note with it: for treatment effect on extracellular DA levels in hippocampus: 1 mg/kg i.p., experimental day 1; for time course of extracellular DA levels after the peak / increase of extracellular DA levels in hippocampus: 10 mg/kg i.p.; for time course of extracellular DA levels after the peak: experimental day 2; for increase of extracellular DA levels in hippocampus: experimental day 2, within 20 min of administration, relative to baseline. How it is done:
Male, adult C57BL76J mice (Janvier-Labs, Saint Berthevin, France) were group-housed in individually ventilated cages under standard laboratory conditions (temperature 22 ± 2 °C, humidity 45–65%, with a 12:12 h light-dark cycle lights on at 07:00 h). Animals had free access to food and water. All experimental procedures were approved by the Austrian Animal Experimentation Ethical Committee (Bundesministerium für Wissenschaft, Forschung und Wirtschaft, Kommission für Tierversuchsangelegenheiten) in compliance with international laws and policies.
Under isoflurane anesthesia (at 5% and 1.5% for induction and maintenance, respectively), a commercially available guide cannula (MAB 4.15 with OD 0.48 mm and ID 0.35 mm, Microbiotech, Stockholm, Sweden) was implanted above the right hippocampus (AP = −2.1 mm, ML = +1.5 mm, DV = −0.7 mm from Bregma) and closed with a dummy probe as described previously. After surgery, animals received buprenorphine (0.5 mg/kg s.c.) and meloxicam (1.0 mg/kg p.o. via the drinking water) for analgesic care. They were allowed to recover for 5–7 days while being single-housed and habituated to the experimenter and experimental procedures. On the day before the experiment, the dummy was replaced by a microdialysis probe (MAB 4.15.1 PES, Microbiotech, Sweden) that extended the guide cannula by 1 mm, thus reaching into the dorsal hippocampus. Microdialysis probes were connected to a microinfusion pump (CMA, Stockholm, Sweden) and a swivel-tether system via polyethylene tubing. Probes were constantly superfused with artificial cerebrospinal fluid (aCSF); consisting of in mM: 140 NaCl, 3.0 KCl, 1.2 CaCl2, 1.0 MgCl2, 1.0 Na2HPO4, pH 7.4, at a flow rate of 0.5 µL/min overnight and 1.0 µL/min during sample collection, respectively. Microdialysis fractions were collected every 20 min in pre-cooled microtubes containing antioxidative protection solution (in mM: 0.27 Na2EDTA, 100 acetic acid, 0.0125 ascorbic acid), vortexed, and immediately frozen at −80 °C until further analysis. At any time, the dead volumes generated by the inlet and outlet systems were considered to cause a temporal delay in fraction collection.
On experimental day 1, vehicle (30% Kolliphor EL) or one of the two enantiomers -7h and 8h (1 mg/kg) was administered i.p. after six baseline samples, and another 12 samples were collected. On experimental day 2, the collection of dialysates was resumed. Again, 6 baseline samples and 12 samples after the administration of either vehicle (30% Kolliphor EL) or 7h/8h (10 mg/kg) were collected. At the end of the experiment, microdialysis probes were superfused with high (100 mM) depolarizing concentrations of potassium (K^+) containing aCSF in order to elicit local […] for testing the functionality of the microdialysis system. Thereafter, animals were euthanized with an overdose of thiopental, decapitated, and their brains removed. The localization of the microdialysis probe was verified by observing cresyl violet-stained coronal sections (40 µm) under a light microscope. Three animals were removed from the analysis due to misplaced probes.
Quantification of dopamine in microdialysates. The quantification of dopamine in microdialysates was performed using a high-performance liquid chromatography (HPLC) system for electrochemical detection, as previously described. The HPLC system consisted of a Shimadzu (Kyoto, Japan) system controller (CBM-20A), a degassing unit (DGU-20A3R), and a micro HPLC pump (LC-20AD) operating at a flow rate of 55 µL/min. Microdialysis samples (5 µL) were injected via a SIL-20ACHT autosampler (Shimadzu, Japan) and separated on a C18 reversed-phase column (Inertsil ODS-3; 50 mm × 1.0 mm ID; 3 µm particle sizes, GL Sciences Inc., Tokyo, Japan) placed in a DECADE II electrochemical detector equipped with an amperometric flow cell (Antec, Zoeterwoude, The Netherlands). […]

Series [2] is described as follows: Compound brain levels after intraperitoneal injection. It counts as in vivo. The settings on record: single intraperitoneal injection, 10 mg/kg, Sprague–Dawley rats. How it is done: Compound brain levels. For an in-depth description of the brain and blood at 7h, we refer to the protocol of Evotec (France, Study No. DMPK-2020-494) in the supplementary information file.

In general, Cmax refers to the peak of the concentration-time curve. As usually defined, the half-life is the time needed for the level to fall by half in the phase considered. Higher therefore signals slow decline. As a reminder, the Tmax is the time from dosing to the highest level. In the case of `[O-][S@@+](Cc1cccs1)[C@@H](c1ccccc1)c1cccc(Br)c1` [Compound 7h, (S,S)-2-((((3-bromophenyl)(phenyl)methyl)sulfinyl)methyl)thiophene], in series [1], the “treatment effect on extracellular DA levels in hippocampus” value is “no treatment effect”, the “time course of extracellular DA levels after the peak” value is reported as “remained elevated throughout a 2 h time period” and the “increase of extracellular DA levels in hippocampus” value is “approximately 35%”. In series [2] (rat, brain, ip), this molecule showed a Cmax of 478 ng/g and a half-life of 3 h. For the same molecule, in series [2] (rat, brain, ip, read-out: median Tmax in the brain), the time to peak (Tmax) worked out at 1 h. Further, in series [2], the “detectable in brain post-administration” value is on record as “up to 10 h”.
With `[O-][S@+](Cc1cccs1)[C@H](c1ccccc1)c1cccc(Br)c1` [Compound 8h, (R,R)-2-((((3-bromophenyl)(phenyl)methyl)sulfinyl)methyl)thiophene], in series [1], the “treatment effect on extracellular DA levels in hippocampus” value was “no treatment effect”, the “time course of extracellular DA levels after the peak” value is “constantly declined from the peak values” and the “increase of extracellular DA levels in hippocampus” value is “approximately 35%”.
